ChEMBL document CHEMBL4765429, “Discovery of methyl 3-((2-((1-(dimethylglycyl)-5-methoxyindolin-6-yl)amino)-5-(trifluoro-methyl) pyrimidin-4-yl)amino)thiophene-2-carboxylate as a potent and selective polo-like kinase 1 (PLK1) inhibitor for combating hepatocellular carcinoma” (Eur J Med Chem, 2020)

Tests used:
[1] = Metabolic stability in human liver microsomes assessed as clearance; type: ADME, Microsome; conditions: read-out: CLH
[2] = Metabolic stability in mouse liver microsomes assessed as clearance; type: ADME, Microsome; conditions: read-out: CLH
[3] = Metabolic stability in dog liver microsomes assessed as clearance; type: ADME, Canis lupus familiaris, Microsome; conditions: read-out: CLH
[4] = Metabolic stability in monkey liver microsomes assessed as clearance; type: ADME, Macaca mulatta, Microsome; conditions: rhesus monkey, read-out: CLH
[5] = Metabolic stability in rat liver microsomes assessed as clearance; type: ADME, Microsome; conditions: read-out: CLH
[6] = Half life in ICR mouse at 5 mg/kg, iv; type: ADME, organism-based; conditions: in vivo
[7] = AUC (0 to infinity) in ICR mouse at 5 mg/kg, iv; type: ADME, organism-based; design: route intravenous, time infinity, dose 5 mg/kg; conditions: in vivo
[8] = Volume of distribution at steady state in ICR mouse at 5 mg/kg, iv; type: ADME, organism-based; conditions: in vivo, read-out: Vdss

CLint scaled [1]: 74.3 mL/min/kg
CLint scaled [2]: 331 mL/min/kg
CLint scaled [3]: 61.5 mL/min/kg
CLint scaled [4]: 196 mL/min/kg
CLint scaled [5]: 91.3 mL/min/kg
half-life [6]: 1.47 h
AUC(0-inf) [7]: 776 ng·h/mL
Vd [8]: 5.21 L/kg
Structure (SMILES): COC(=O)c1sccc1Nc1nc(Nc2cc3c(cc2OC)CCN3C(=O)CN(C)C)ncc1C(F)(F)F
